Among the test systems are DLD-1; DMS-114; DMS-273; HOP-18; KM-20L2; RXF 631; BT-549; Hs-578T; MDA-N.
Test in all cases: inhibition of tumour cell growth, NCI panel, 48 h

Structures can show the parent of a compound that is named as a salt.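 A five-concentration, 48-hour dose response in 96-well plates underlies each endpoint, interpolated linearly between surrounding concentrations. GI50 is the concentration that inhibits growth by half.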 The source made the active and inactive calls. No stated cut-off is given here; in the data, active = GI50 up to about 1.1 µM and inactive = higher. Bounds are passed on as bounds.

The record followed here is ChEMBL document CHEMBL1201862, “PubChem BioAssay data set” (2004).

As to `COc1cc(C=C2C(=O)NC(=O)NC2=O)cc(OC)c1OC`, the GI50 in the assay on DLD-1, in the assay with DMS-114, with DMS-273, in the assay with HOP-18 and with KM-20L2 was > 100 µM (inactive) each time.
As for `CNC(=O)CN(CC(N)=O)C(N)=O`, the GI50 in the assay on DLD-1, in the assay on DMS-273, with KM-20L2 and in the assay on RXF 631 was > 100 µM (inactive) in each case.
For the compound `C[C@H](O)CCC(=O)c1ccoc1`, the GI50 is > 100 µM (inactive) with DLD-1; > 100 µM (inactive) with DMS-114; > 100 µM (inactive) with DMS-273; 75 µM (inactive) in the assay on HOP-18; > 100 µM (inactive) in the assay on KM-20L2.
Turning to `O=C1C(CN2CCOCC2)CCCC1CN1CCOCC1` (stereo not given), the GI50 in the assay with BT-549 is 1.96 µM (inactive); in the assay on DLD-1, 0.67 µM (active); with DMS-114, 5.61 µM (inactive); in the assay on DMS-273 it was 8.11 µM (inactive); in the assay on HOP-18, 1.81 µM (inactive); with Hs-578T it was 23 µM (inactive). Also, the GI50 was 6.43 µM (inactive) in the assay with KM-20L2, 4.37 µM (inactive) in the assay on MDA-N and 10.5 µM (inactive) in the assay on RXF 631.
As for `NC(=S)N1N=C2c3ccccc3CC[C@@H]2[C@@H]1c1ccccc1`, the GI50 in the assay with DLD-1 was 6.5 µM (inactive); in the assay with DMS-114 it was 2.45 µM (inactive); in the assay with DMS-273, 2.19 µM (inactive); with HOP-18 it was 20.8 µM (inactive); in the assay on KM-20L2, 4.22 µM (inactive); in the assay with RXF 631, 7.85 µM (inactive).
`Nc1n/c(=N\c2ccccc2)ss1`: the GI50 with DLD-1, with DMS-114, in the assay with DMS-273, in the assay with HOP-18, in the assay with KM-20L2 and in the assay on RXF 631 was > 100 µM (inactive) each time.
On to `NS(=O)(=O)c1ccccc1C(=O)N/N=C(\c1nc2ccc([N+](=O)[O-])cc2[nH]c1=O)C(O)c1ccc([N+](=O)[O-])cc1` (stereo not given), for which the GI50 in the assay with DLD-1 is > 100 µM (inactive); with HOP-18, > 100 µM (inactive); in the assay with KM-20L2, 46.2 µM (inactive).
Turning to `O=C(c1ccccc1)C1S(=O)(=O)OCCOS1(=O)=O`, the GI50 with DLD-1, with DMS-114, with DMS-273 and in the assay with RXF 631 was > 100 µM (inactive) throughout.
On to `CC(=O)OCCOCBr`, for which the GI50 in the assay with DLD-1, in the assay with DMS-114, in the assay on DMS-273, with HOP-18, with KM-20L2 and in the assay with RXF 631 was > 100 µM (inactive) in each case.
For the compound `CCOC(=O)CC(=O)Sc1ccccc1`, the GI50 in the assay with DLD-1 was 20 µM (inactive); in the assay on DMS-114, 14.4 µM (inactive); with DMS-273 it was 20.7 µM (inactive); in the assay with HOP-18 it was > 100 µM (inactive); with KM-20L2, 21.2 µM (inactive).
Turning to `COc1ccccc1NC(=O)CC(=O)n1nc(C)c(/N=N/c2ccccc2C(=O)O)c1C`, the GI50 in the assay with DLD-1, with DMS-114, with DMS-273 and in the assay on KM-20L2 was > 100 µM (inactive) throughout.
For the compound `O=C1C2c3[nH]c4ccccc4c3C3CCCCCCC3C2C(=O)N1c1ccccc1` (stereo not given), the GI50 was > 10 µM (inactive) with DLD-1, 4.71 µM (inactive) in the assay with DMS-114, 11.1 µM (inactive) with DMS-273 and 4.71 µM (inactive) with RXF 631.
Turning to `Cc1ccc(/C=N/NS(=O)(=O)c2ccccc2)cc1C`, the GI50 with DLD-1 is > 100 µM (inactive); in the assay on DMS-114, 46.1 µM (inactive); with DMS-273 it was > 100 µM (inactive); in the assay on HOP-18 it was > 100 µM (inactive); in the assay with KM-20L2, > 100 µM (inactive).
As for `CC(=O)OCCC(O[Si](c1ccccc1)(c1ccccc1)C(C)(C)C)C(C)(C)O` (stereo not given), the GI50 was 19.9 µM (inactive) in the assay on DMS-114; 27 µM (inactive) with DMS-273; 25.2 µM (inactive) in the assay with HOP-18; 32.3 µM (inactive) with KM-20L2; 34.3 µM (inactive) in the assay on RXF 631.
Turning to `O=C1C2C=CC(n3[nH]c(=O)n(Cc4ccccc4)c3=O)CC2C(=O)N1c1ccc(Br)cc1` (stereo not given), the GI50 in the assay on DLD-1, with DMS-114, in the assay with DMS-273, in the assay with HOP-18 and with KM-20L2 was > 100 µM (inactive) each time.
Regarding `CCCCCOCC(O)CO` (stereo not given), the GI50 in the assay with DLD-1, in the assay on DMS-114, with DMS-273, in the assay on HOP-18 and in the assay with KM-20L2 was > 100 µM (inactive) in each case.
For the compound `O=C(CC1(O)C(=O)Nc2ccccc21)c1ccc(Cl)cc1Cl` (stereo not given), the GI50 in the assay with DLD-1, in the assay on DMS-114, with DMS-273, in the assay with KM-20L2 and in the assay on RXF 631 was > 100 µM (inactive) throughout.
For `COC(=O)c1nc(NC#N)nc(O)c1C`, the GI50 in the assay on DLD-1 is > 100 µM (inactive); in the assay on DMS-114, > 100 µM (inactive); with DMS-273, > 69.3 µM (inactive); with HOP-18, > 100 µM (inactive); in the assay on KM-20L2, > 100 µM (inactive); with RXF 631, > 100 µM (inactive).
With `N#CC(C(=O)CCC(=O)Nc1ccc(Cl)c(Cl)c1)c1ccc(Cl)cc1` (stereo not given), the GI50 was 55.5 µM (inactive) in the assay with DLD-1; 75.3 µM (inactive) in the assay on DMS-114; 39.3 µM (inactive) in the assay on DMS-273; > 100 µM (inactive) in the assay on HOP-18; 15 µM (inactive) in the assay on KM-20L2; 90.6 µM (inactive) in the assay on RXF 631.
Take `C=C(CN(C)C)C(=O)c1ccccc1Cl`: the GI50 in the assay on DLD-1 is 17.3 µM (inactive); in the assay with DMS-114, 15.9 µM (inactive); with DMS-273, 19.6 µM (inactive); in the assay on HOP-18, 19.5 µM (inactive); in the assay with KM-20L2, 30.1 µM (inactive); in the assay with RXF 631, 21.2 µM (inactive).
With `O=C(Nc1ccccc1-c1nn(C(=S)Nc2ccccc2)c(=S)n(C(=S)Nc2ccccc2)c1=O)C(F)(F)F`, the GI50 in the assay on DLD-1 is 24.8 µM (inactive); in the assay on DMS-114 it was 9.38 µM (inactive); in the assay with DMS-273, 27.4 µM (inactive); in the assay on HOP-18 it was 30.1 µM (inactive); in the assay with KM-20L2 it was 36.2 µM (inactive).
The matching figures for `O=C1C2CCC(C2)C12CC1(c3ccccc3)C(=O)c3ccccc3N1O2` (stereo not given): > 100 µM (inactive), > 100 µM (inactive), 81.8 µM (inactive), > 100 µM (inactive) and > 100 µM (inactive).
For `O=c1[nH]c(=O)n(C2OC(CO)C(O)C2O)cc1OCC(F)(F)F` (stereo not given), in that order: > 100 µM (inactive), > 100 µM (inactive), > 100 µM (inactive), > 100 µM (inactive) and > 100 µM (inactive).
As for `C[C@@H](NC1CCCC[C@@H]1O)c1ccccc1` (stereo not given in full), the GI50 in the assay with DLD-1, in the assay with DMS-273, in the assay with HOP-18 and in the assay with KM-20L2 was > 100 µM (inactive) in each case.
Regarding `CC(=O)OC1CC[C@@]2(C)C(CC[C@]3(C)C2CC=C2[C@@H]4C(C)[C@H](C)CCC4(C)CCC23C)[C@@]1(C)C(=O)O` (stereo not given in full), the GI50 in the assay on BT-549 was 25 µM (inactive); with DLD-1 it was 18.7 µM (inactive); in the assay with DMS-114 it was 18.4 µM (inactive); in the assay on DMS-273 it was 21.2 µM (inactive); in the assay with HOP-18, 16.3 µM (inactive); with Hs-578T it was 25.7 µM (inactive). Moreover, the GI50 was 16.2 µM (inactive) with KM-20L2, 20.9 µM (inactive) in the assay on MDA-N and 23.9 µM (inactive) in the assay on RXF 631.
`CC/C=C/c1cc2cc[nH]c2c2c1C(C)C[C@@H]2C` (stereo not given in full): the GI50 was 34.2 µM (inactive) with DLD-1, 20.6 µM (inactive) in the assay with DMS-114, > 10 µM (inactive) in the assay on DMS-273 and 17.9 µM (inactive) in the assay with HOP-18.
As for `CC(=O)OC(C[C@H](C)[C@@H]1CC[C@]2(C)C3=CCC4C(C)(C)C(=O)CC[C@]4(C)C3CCC12C)C1OC1(C)C` (stereo not given in full), the GI50 in the assay with DLD-1 was 29.7 µM (inactive); in the assay with DMS-114, 32.5 µM (inactive); in the assay with DMS-273, 17.1 µM (inactive); with HOP-18 it was > 100 µM (inactive); in the assay on KM-20L2, 25.5 µM (inactive).
On to `C[C@]12CC[C@@H]3c4ccc(O)cc4CC[C@H]3[C@@H]1CC[C@@H]2OC(=O)CCC1CCCC1` [ESTRADIOL CYPIONATE], for which the GI50 in the assay with BT-549 was 17.7 µM (inactive); in the assay with DLD-1, 33 µM (inactive); with DMS-114, 30.8 µM (inactive); in the assay with DMS-273, 14.3 µM (inactive); in the assay with HOP-18, 20.3 µM (inactive); in the assay on KM-20L2, 17.7 µM (inactive). Also, the GI50 in the assay with MDA-N is 6.85 µM (inactive).
For the compound `N[C@@H](Cc1ccc(N(CCCl)CCCl)cc1)C(=O)O` [MELPHALAN HYDROCHLORIDE], the GI50 in the assay on BT-549 is 38 µM (inactive); with DLD-1, 47 µM (inactive); in the assay on DMS-114, 20.2 µM (inactive); with DMS-273, 9.71 µM (inactive); in the assay with Hs-578T, 51.8 µM (inactive); in the assay on KM-20L2, 76.2 µM (inactive). For the same compound, the GI50 in the assay on MDA-N was 46.3 µM (inactive).
